Data on five compounds can be found in PMC11820896, “New Compounds with Enhanced Biological Activity Through the Strategic Introduction of Silylated Groups into Hydroxystearic Acids” (Molecules, 2025).

In experiment [1] the test system is human tumor cell lines (HT29, MCF-7, HeLa, U2OS, and J6). Put plainly: Antiproliferative activity in the series of human tumor cell lines. The format is cell-based. As to conditions: MTT; concentration range of 10–500 nM. As for the experimental part: (§1) The human colorectal adenocarcinoma (Caco-2), human colorectal adenocarcinoma (HT29), normal human intestinal (I407), human cervical cancer (HeLa), human breast cancer (MCF7), human bone osteosarcoma (U2OS), and human acute T-cell leukemia (Jurkat J6) cell lines were purchased from American Type Culture Collection (ATCC, Manassas, VA, USA). Cells were cultured in RPMI 1640 medium (Labtek Eurobio, Milan, Italy), supplemented with 10% FCS (Euroclone, Milano, Italy) and 2 mM L-glutamine (Sigma-Aldrich, Milano, Italy), at 37 °C and in a 5% CO2 atmosphere. The compounds were dissolved in DMSO in a 30–40 mM stock solution. In cell treatments, the final DMSO concentration never exceeded 0.1%.
(§2) Cells were seeded in a 96-well culture plastic plate (Sarsted, Milan, Italy), at 5 × 10^4 cells/well and, after 24 h, were exposed to increasing concentrations of the different compounds (from 1 nM to 500 nM) dissolved in RPMI 1640 medium. An MTT assay was performed according to Micheletti et al..
(§3) The absorbance at 570 nm was measured using a multi-well plate reader (Tecan, Männedorf, Switzerland), and data were analyzed by Prism GraphPad 8 software and expressed as IC50 nM.

The test system of another experiment is HT29. Put plainly: MTT assay, HT29 cells. The format is cell-based, human. The following applies: Homo sapiens, HT-29; MTT; means of four experiments; na = not active; read-out: In vitro cytotoxic activity (IC50), HT29. As for the experimental part:
as §1, §2, §3

In another experiment the test system is MCF7. Put plainly: MTT assay, MCF7 cells. It is filed as cell-based. As to conditions: Homo sapiens, means of four experiments, na = not active, read-out: In vitro cytotoxic activity (IC50), MCF7. As for the experimental part: as §1, §2, §3
Background: Tetrazolium dyes change colour on reduction, which living cells bring about.

The subject of the next experiment is HeLa. Put plainly: MTT assay, HeLa cells. The format is cell-based. The following applies: Homo sapiens, means of four experiments, na = not active, read-out: In vitro cytotoxic activity (IC50), HeLa. As for the experimental part: as §1, §2, §3
In another experiment the test system is U2OS. Put plainly: MTT assay, U2OS cells. It is filed as cell-based. The following applies: Homo sapiens, means of four experiments, na = not active, read-out: In vitro cytotoxic activity (IC50), U2OS. As for the experimental part:
as §1, §2, §3

For a further experiment, the system named is J6. Put plainly: MTT assay, Jurkat J6 cells. The format is cell-based. As to conditions: Homo sapiens, means of four experiments, na = not active, read-out: In vitro cytotoxic activity (IC50), J6. As for the experimental part: as §1, §2, §3
A further experiment concerns HT29 cells. The arrangement: method as in PMID 14715257, PMID 22814230. As to conditions: cited from earlier work.
The test system of experiment [2] is histones H2/H3 and H4 of HT29 cells. Also on record: method as in PMID 15716589, PMID 22814230. The following applies: cited from earlier work.
In experiment [3] the test system is histone deacetylase HDAC1. Also on record: method as in PMID 14715257, PMID 15716589, PMID 16702808, PMID 17234448, PMID 22814230. As to conditions: cited from earlier work.

`CCCCCCCCC(O[Si](C)(C)C(C)(C)C)C(CCCCCCCC(=O)OC)O[Si](C)(C)C(C)(C)C` (racemic) [Compound 10, Rac-erythro-methyl 9,10-bis((tert-butyldimethylsilyl)oxy)octadecanoate]: in experiment [1], the “antitumor activity across all cell lines tested” value is listed as “no activity”.
As for `CCCCCCCCC[C@H](CCCCCCCC(=O)OC)O[Si](C)(C)C(C)(C)C` [Compound 3, Methyl (R)-9-((tert-butyldimethylsilyl)oxy)octadecanoate], the IC50 turned out to be 84.76 ± 0.1 nM in the experiment with HT29; 134 ± 0.27 nM in the experiment on MCF7; 133.7 ± 0.32 nM in the experiment on HeLa; 29.33 ± 0.23 nM in the experiment on U2OS; 151.6 ± 0.31 nM with J6. Also, in experiment [1], the “antitumor activity across all cell lines tested” value is “showed antitumor activity”.
In the case of `CCCCCCCCC(O[Si](C)(C)C(C)(C)C)C(CCCCCCCC(=O)O)O[Si](C)(C)C(C)(C)C` (racemic) [Compound 13, Rac-erythro-9,10-bis((tert-butyldimethylsilyl)oxy)octadecanoic Acid], the IC50 with HT29 was 25.3 ± 0.27 nM; with HeLa, 131.8 ± 0.21 nM; in the experiment with U2OS it was 41.95 ± 0.29 nM. In addition, in experiment [1], the “antitumor activity across all cell lines tested” value is “showed antitumor activity”.
Take `CCCCCCCCC[C@@H](O)CCCCCCCC(=O)O` [(R)-9-HSA, (R)-9-hydroxystearic acid]: in the experiment with HT29 cells, the “concentration inducing the same effect on the cell cycle (G0/G1 arrest)” value is on record as 50 µM. In addition, the “histone acetylation (free acid)” value in experiment [2] is reported as “induces hyperacetylation of histone H4”.
As to `CCCCCCCCCC(O)CCCCCCCC(=O)O` (stereo not drawn) [Compound 9-HSA, 9-hydroxystearic acid], the “concentration inducing the same effect on the cell cycle (G0/G1 arrest)” value in the experiment on HT29 cells is listed as 100 µM. For the same compound, the “inhibition of histone deacetylase HDAC1” value in experiment [3] was “selectively inhibits”.

One may read the IC50 as the concentration that gives 50% inhibition.
